Reference: the NIST ThermoML archive (doi:10.1016/j.jct.2011.05.028)
Several values for one entry are separate records, joined by “and”; a condition that tells them apart may be missing. Equal entries are not always repeated.

Conditions: Liquid, Transpiration method

[N-]=[N+]=NC1CCCC1 [cyclopentyl azide]
Conditions | vapor or sublimation pressure
275.5 K | 0.3701 kPa
279.2 K | 0.4454 kPa
281.3 K | 0.48 kPa
283.2 K | 0.5664 kPa
285.3 K | 0.6268 kPa
287 K | 0.722 kPa
288.7 K | 0.7419 kPa
291.1 K | 0.8591 kPa
293 K | 0.9879 kPa and 0.9833 kPa
295.1 K | 1.102 kPa
295.8 K | 1.1 kPa
297.2 K | 1.342 kPa
298.5 K | 1.418 kPa
299.1 K | 1.45 kPa
300.8 K | 1.466 kPa
301.1 K | 1.615 kPa
303.1 K | 1.88 kPa
303.3 K | 1.899 kPa
305.8 K | 1.953 kPa
306.1 K | 2.066 kPa
308.2 K | 2.239 kPa
310.7 K | 2.494 kPa
313.3 K | 2.898 kPa
317.9 K | 3.913 kPa
323.1 K | 4.896 kPa
327.7 K | 5.951 kPa
333.4 K | 7.854 kPa

[N-]=[N+]=NCSc1ccccc1 [azidomethyl phenyl sulfide]
Conditions | vapor or sublimation pressure [kPa]
299.6 K | 0.00448
303.5 K | 0.0064
307.3 K | 0.00918
310.3 K | 0.01158
313.3 K | 0.01502
316.2 K | 0.01866
319.2 K | 0.02463
324.2 K | 0.03511

CCOCCN=[N+]=[N-] [(azidoethoxy)ethane]
Conditions | vapor or sublimation pressure [kPa]
274.1 K | 0.2423
275.7 K | 0.2804
277.1 K | 0.3181
277.9 K | 0.3191
278.7 K | 0.3325
279.4 K | 0.3333
280.2 K | 0.3892
281.5 K | 0.4113
282.4 K | 0.4364
283.2 K | 0.4705
284.8 K | 0.5331
286.2 K | 0.5994
287.8 K | 0.6765
289.2 K | 0.7246
290.7 K | 0.7842
292.2 K | 0.8444
292.3 K | 0.8535
293.7 K | 0.9715
295.2 K | 1.061
296.7 K | 1.173
298.2 K | 1.313
300.7 K | 1.55

CC(=O)OC1CCCC1 [cyclopentyl ethanoate]
Conditions | vapor or sublimation pressure [kPa]
274.1 K | 0.0795
276.1 K | 0.0894
278.2 K | 0.1067
281.3 K | 0.1295
283.2 K | 0.1597
286.3 K | 0.1983
288.4 K | 0.2248
291.2 K | 0.278
293.2 K | 0.3029
296.4 K | 0.4022
298.2 K | 0.4443
303.2 K | 0.6114
308.4 K | 0.8519

[N-]=[N+]=NCCO [2-azidoethanol]
Conditions | vapor or sublimation pressure [kPa]
284.6 K | 0.021
287.3 K | 0.0267
288.8 K | 0.0298
291.8 K | 0.0398
294.8 K | 0.052
297.7 K | 0.0664
300.7 K | 0.088
303.6 K | 0.1076
306.6 K | 0.1398
309 K | 0.1676
309.6 K | 0.1718
312 K | 0.2073
312.6 K | 0.2168
316 K | 0.2782
316.1 K | 0.2882

CCOC(=O)CN=[N+]=[N-] [ethyl azidoacetate]
Conditions | vapor or sublimation pressure [kPa]
301.4 K | 0.1784
304.8 K | 0.2378
308.3 K | 0.3083
314.3 K | 0.4549
320.2 K | 0.6452
323.2 K | 0.7874
326.2 K | 0.9687
332.2 K | 1.38
338.1 K | 1.929
341.1 K | 2.397
344.3 K | 2.714

[N-]=[N+]=NC1CCCCC1 [azidocyclohexane]
Conditions | vapor or sublimation pressure [kPa]
279.6 K | 0.0856
281.6 K | 0.1002
283.4 K | 0.1159
285.3 K | 0.1366
286.6 K | 0.1432
287.2 K | 0.1571
288.9 K | 0.1754
290.2 K | 0.1885
291.9 K | 0.2153
293.2 K | 0.231
295.5 K | 0.2749
297.1 K | 0.3013
298.3 K | 0.3332
300.1 K | 0.3875
301.3 K | 0.3917
303.1 K | 0.4574
